# US20140296479A1, “D-APTIDE AND RETRO-INVERSO APTIDE WITH MAINTAINED TARGET AFFINITY AND IMPROVED STABILITY” (GWANGJU INSTITUTE OF SCIENCE AND TECHNOLOGY, priority 2011, published 2014)
# Where a SMILES comes first, the peptide text is derived from it. Where no end group is shown, it is not given here. [ ]: non-standard residue; d: D form.
# T1: VEGF121 (Homo sapiens, UniProt P15692)
# T1 sequence (P15692 27-147 isoform P15692-9): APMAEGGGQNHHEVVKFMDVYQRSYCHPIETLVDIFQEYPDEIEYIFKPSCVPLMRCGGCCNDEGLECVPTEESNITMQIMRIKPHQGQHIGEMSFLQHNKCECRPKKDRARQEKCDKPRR
# T2: VEGF (Homo sapiens, UniProt P15692)
# T2 construct: purchased R&D Systems
# T2 sequence (P15692 27-191 isoform P15692-4): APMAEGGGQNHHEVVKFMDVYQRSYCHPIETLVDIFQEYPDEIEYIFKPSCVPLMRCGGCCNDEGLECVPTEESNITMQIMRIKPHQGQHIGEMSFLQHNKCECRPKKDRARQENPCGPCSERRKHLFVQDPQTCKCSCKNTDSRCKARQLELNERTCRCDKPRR
# Tests used:
# fibronectin EDB [1] = biological target: T3, fibronectin EDB (Homo sapiens, UniProt P02751); assay: BIAcore X (SPR) affinity for fibronectin EDB; type: binding; settings: biotin-EDB on SA chip; for Kd / koff (dissociation rate constant): PBS pH 7.4; for kon: PBS pH 7.4, read-out: ka
# T3 construct: Biotin-EDB of 2000 RU was immobilized on streptavidin SA chip
# Description: (§1) To investigate whether the activity is maintained where Aptamer-Like Peptides specifically binding to fibronectin EDB, i.e., L-Aptide1EDB are converted into D- and Retro inverso (RI)-form, their affinity to a target was measured. Firstly, 3 peptides, L-Aptide1EDB ([…], all L-amino acids, SEQ ID NO:21), D-Aptide1EDB ([…], all D-amino acids, SEQ ID NO:21) and RI-Aptide1EDB ([…], all D-amino acids), were synthesized by Anigen Inc. (Korea). Their affinity for a target was determined using BIAcore X (Biacore AB, Uppsala, Sweden). Biotin-EDB of 2000 RU was immobilized on streptavidin SA chip (Biacore). A PBS (pH 7.4) was used as a running buffer, a flow rate was 30 μl/min, and the affinity was determined with BIAevaluation software (Biacore AB, Uppsala, Sweden) after measuring kinetics of various concentrations.
# α-chymotrypsin = biological target: T4, α-chymotrypsin (Bos taurus, UniProt P00766); assay: Degradation of Aptides by protease, SDS-PAGE; type: in vitro ADME; settings: 10 unit α-chymotrypsin, 100 μg peptide, FIG. 3
# T4 construct: purchased Sigma
# Description: (§2) Degradation levels of the L-Aptide1EDB and D-Aptide1EDB were measured using proteases, α-chymotrypsin and trypsin (Sigma). The proteases of 10 unit were added to 100 μg peptides, followed by the reaction for 30, 60, 120 and 720 min, and the reaction was blocked by adding SDS sample buffer (Invitrogen). Subsequently, results for the peptide degradation were obtained from SDS-PAGE.
# trypsin = assay: Degradation of Aptides by protease, SDS-PAGE; type: in vitro ADME; settings: 10 unit trypsin, 100 μg peptide, FIG. 3
# Description: as §2
# VEGF121 = biological target: T1, VEGF121; assay: BIAcore X (SPR) affinity for VEGF; type: binding; settings: VEGF121 on CM5 chip; for kd: PBS pH 7.4; for kon: PBS pH 7.4, read-out: ka
# Description: To investigate whether the activity is maintained where Aptamer-Like Peptides specifically binding to VEGF (Vascular endothelial growth factor), i.e., L-Aptide1VEGF are converted into D- and Retro inverso (RI)-form, their affinity to a target was measured. Firstly, 3 peptides, L-Aptide1VEGF ([…], all L-amino acids, SEQ ID NO:23), D-Aptide1VEGF ([…], all D-amino acids, SEQ ID NO:23) and RI-Aptide1VEGF ([…], all D-amino acids), were synthesized by Anigen Inc. (Korea). Their affinity for a target was determined using BIAcore X (Biacore AB, Uppsala, Sweden). VEGF121 of 3000 RU was immobilized on CM5 chip (Biacore). A PBS (pH 7.4) was used as a running buffer, a flow rate was 30 μl/min, and the affinity was determined with BIAevaluation software (Biacore AB, Uppsala, Sweden) after measuring kinetics of various concentrations.
# VEGF = biological target: T2, VEGF; assay: Inhibition of VEGF activity (HUVEC proliferation assay); type: cell-based; settings: VEGF165, 72 hours
# Description: HUVECs (Human Umbilical Vein Endothelial Cells, ATCC) were starved in M199 medium (Gibco) supplemented with 1% FBS, and then they were attached to a 96-well plate at 5000 cell/well. After 12 hours, the cells were treated with medium containing both various concentrations of L-Aptide1VEGF and D-Aptide1VEGF, and VEGF165 (R&D Systems). After 72 hours, the growth inhibition rate of HUVECs by the L-AptideVEGF and D-AptideVEGF was determined using EZ-cytox cell viability assay kit (Daeil Labservice, Korea).
# fibronectin EDB [2] = biological target: T5, fibronectin EDB (UniProt P02751 1266-1356, limits assumed, biotin (site not stated)); assay: SPR, BIAcore X; biotin-EDB on SA chip, peptide as analyte
# T5 construct: domain: EDB; Biotin-EDB, 2000 RU, immobilised on a streptavidin SA chip; also called Biotin-EDB; fibronectin extra domain B (ED-B)
# T5 sequence (P02751 1266-1356 limits assumed): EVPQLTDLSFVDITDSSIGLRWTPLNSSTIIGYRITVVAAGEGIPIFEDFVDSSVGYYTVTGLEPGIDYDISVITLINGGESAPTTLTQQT
# Description: as §1, with “(Biacore).” for “(Biacore). A PBS (pH 7.4) was used as a running buffer, a flow rate was 30 μl/min, and the affinity was determined with BIAevaluation software (Biacore AB, Uppsala, Sweden) after measuring kinetics of various concentrations.”
molecule,measurement,setting,value
CC[C@@H](C)[C@@H](NC(=O)CNC(=O)[C@@H](CCCCN)NC(=O)[C@@H](Cc1c[nH]c2ccccc12)NC(=O)[C@H](NC(=O)[C@@H](Cc1c[nH]c2ccccc12)NC(=O)[C@@H](CCCCN)NC(=O)CNC(=O)[C@@H](CC(N)=O)NC(=O)[C@@H](CCC(=O)O)NC(=O)[C@@H](Cc1c[nH]c2ccccc12)NC(=O)[C@H](NC(=O)[C@@H](Cc1c[nH]c2ccccc12)NC(=O)[C@@H](CO)NC(=O)CNC(=O)[C@H](NC(=O)[C@@H](C)NC(=O)[C@@H](CO)NC(=O)[C@@H](CO)NC(=O)[C@@H](CS)NC(=O)[C@H](N)Cc1c[nH]cn1)C(C)C)[C@H](C)O)[C@H](C)O)C(=O)N[C@@H](C(=O)N[C@H](CCCNC(=N)N)C(=O)N[C@H](CC(C)C)C(=O)N[C@H](CCC(=O)O)C(=O)N[C@H](CCC(N)=O)C(=O)O)[C@H](C)CC [D-Aptide1EDB] (H-[dH][dC][dS][dS][dA][dV]G[dS][dW][dT][dW][dE][dN]G[dK][dW][dT][dW][dK]G[dI][dI][dR][dL][dE][dQ]-OH; N-terminus and C-terminus assumed),Kd,fibronectin EDB [1],58 nM
same,koff (dissociation rate constant),fibronectin EDB [1],0.0009 s⁻¹
same,kon,fibronectin EDB [1],15000 M⁻¹ s⁻¹
same,time to degradation by protease,α-chymotrypsin,> 360 min
same,time to degradation by protease,trypsin,> 360 min
C[C@H](O)[C@@H](NC(=O)[C@@H](Cc1c[nH]c2ccccc12)NC(=O)[C@@H](CCCCN)NC(=O)CNC(=O)[C@@H](CC(N)=O)NC(=O)[C@@H](CCC(=O)O)NC(=O)[C@@H](Cc1c[nH]c2ccccc12)NC(=O)[C@H](NC(=O)[C@@H](Cc1c[nH]c2ccccc12)NC(=O)[C@@H](CO)NC(=O)CNC(=O)[C@@H](CCC(N)=O)NC(=O)[C@@H](Cc1ccccc1)NC(=O)[C@@H](Cc1ccccc1)NC(=O)[C@@H](CC(N)=O)NC(=O)[C@@H](C)NC(=O)[C@H](N)Cc1c[nH]cn1)[C@H](C)O)C(=O)N[C@H](Cc1c[nH]c2ccccc12)C(=O)N[C@H](CCCCN)C(=O)NCC(=O)N[C@H](Cc1c[nH]c2ccccc12)C(=O)N[C@H](CCCCN)C(=O)N[C@H](Cc1ccc(O)cc1)C(=O)N[C@H](CC(N)=O)C(=O)N[C@H](CCC(N)=O)C(=O)N[C@H](CO)C(=O)O [D-Aptide1VEGF] (H-[dH][dA][dN][dF][dF][dQ]G[dS][dW][dT][dW][dE][dN]G[dK][dW][dT][dW][dK]G[dW][dK][dY][dN][dQ][dS]-OH; N-terminus and C-terminus assumed),kd,VEGF121,0.0066 s⁻¹
same,Kd,"VEGF121; PBS pH 7.4, read-out: Kd",50 nM
same,kon,VEGF121,130000 M⁻¹ s⁻¹
same,inhibition of VEGF activity,"VEGF; at 10 μM, D-form versus L-form",more inhibited VEGF activity than L-form
same,inhibition of VEGF activity,VEGF; at 20 μM,completely inhibited VEGF activity
CC[C@H](C)[C@H](NC(=O)CNC(=O)[C@H](CCCCN)NC(=O)[C@H](Cc1c[nH]c2ccccc12)NC(=O)[C@@H](NC(=O)[C@H](Cc1c[nH]c2ccccc12)NC(=O)[C@H](CCCCN)NC(=O)CNC(=O)[C@H](CC(N)=O)NC(=O)[C@H](CCC(=O)O)NC(=O)[C@H](Cc1c[nH]c2ccccc12)NC(=O)[C@@H](NC(=O)[C@H](Cc1c[nH]c2ccccc12)NC(=O)[C@H](CO)NC(=O)CNC(=O)[C@@H](NC(=O)[C@H](C)NC(=O)[C@H](CO)NC(=O)[C@H](CO)NC(=O)[C@H](CS)NC(=O)[C@@H](N)Cc1c[nH]cn1)C(C)C)[C@@H](C)O)[C@@H](C)O)C(=O)N[C@H](C(=O)N[C@@H](CCCNC(=N)N)C(=O)N[C@@H](CC(C)C)C(=O)N[C@@H](CCC(=O)O)C(=O)N[C@@H](CCC(N)=O)C(=O)O)[C@@H](C)CC [L-Aptide1EDB] (H-HCSSAVGSWTWENGKWTWKGIIRLEQ-OH; N-terminus and C-terminus assumed),Kd,fibronectin EDB [1],65 nM
same,koff (dissociation rate constant),fibronectin EDB [1],0.00095 s⁻¹
same,kon,fibronectin EDB [1],10000 M⁻¹ s⁻¹
same,time to degradation by protease,α-chymotrypsin,≤ 30 min
same,time to degradation by protease,trypsin,≤ 30 min
C[C@H](NC(=O)[C@@H](N)Cc1c[nH]cn1)C(=O)N[C@@H](CC(N)=O)C(=O)N[C@@H](Cc1ccccc1)C(=O)N[C@@H](Cc1ccccc1)C(=O)N[C@@H](CCC(N)=O)C(=O)NCC(=O)N[C@@H](CO)C(=O)N[C@@H](Cc1c[nH]c2ccccc12)C(=O)N[C@H](C(=O)N[C@@H](Cc1c[nH]c2ccccc12)C(=O)N[C@@H](CCC(=O)O)C(=O)N[C@@H](CC(N)=O)C(=O)NCC(=O)N[C@@H](CCCCN)C(=O)N[C@@H](Cc1c[nH]c2ccccc12)C(=O)N[C@H](C(=O)N[C@@H](Cc1c[nH]c2ccccc12)C(=O)N[C@@H](CCCCN)C(=O)NCC(=O)N[C@@H](Cc1c[nH]c2ccccc12)C(=O)N[C@@H](CCCCN)C(=O)N[C@@H](Cc1ccc(O)cc1)C(=O)N[C@@H](CC(N)=O)C(=O)N[C@@H](CCC(N)=O)C(=O)N[C@@H](CO)C(=O)O)[C@@H](C)O)[C@@H](C)O [L-Aptide1VEGF] (H-HANFFQGSWTWENGKWTWKGWKYNQS-OH; N-terminus and C-terminus assumed),kd,VEGF121,0.01 s⁻¹
same,kon,VEGF121,350000 M⁻¹ s⁻¹
same,inhibition of VEGF activity,VEGF; at 20 μM,completely inhibited VEGF activity
[dQ][dE][dL][dR][dI][dI]G[dK][dW][dT][dW][dK]G[dN][dE][dW][dT][dW][dS]G[dV][dA][dS][dS][dC][dH] (designed binder) [RI-Aptide1EDB],koff,fibronectin EDB [2],0.0011 s⁻¹
"HCSSAVGSWTWENGKWTWKGIIRLEQ (designed binder, Synthetic 26-mer, all L-amino acids; also called Aptide1EDB (L-form)) [L-Aptide1EDB]",koff,fibronectin EDB [2],0.00095 s⁻¹
[dH][dC][dS][dS][dA][dV]G[dS][dW][dT][dW][dE][dN]G[dK][dW][dT][dW][dK]G[dI][dI][dR][dL][dE][dQ] (designed binder) [D-Aptide1EDB],koff,fibronectin EDB [2],0.0009 s⁻¹
